For data set [1], the system named is BV-2. Briefly: cells. The following applies: Mus musculus.
In data set [2] the target is ALK tyrosine kinase receptor (Homo sapiens, UniProt Q9UM73). Briefly: Inhibition of recombinant ALK (1060 to end residues) (unknown origin) expressed in Escherichia coli […] using IGF1Rtide as substrate preincubated for 15 mins followed by substrate and ATP addition and measured after 90 mins by ADP-Glo luminescence […] assay. A general note: ADP-Glo turns the ADP formed in a reaction into a luminescent signal.

The target in data set [3] is T1, Receptor-interacting serine/threonine-protein kinase 1 (Homo sapiens, UniProt Q13546).
T1 sequence (Q13546 whole entry): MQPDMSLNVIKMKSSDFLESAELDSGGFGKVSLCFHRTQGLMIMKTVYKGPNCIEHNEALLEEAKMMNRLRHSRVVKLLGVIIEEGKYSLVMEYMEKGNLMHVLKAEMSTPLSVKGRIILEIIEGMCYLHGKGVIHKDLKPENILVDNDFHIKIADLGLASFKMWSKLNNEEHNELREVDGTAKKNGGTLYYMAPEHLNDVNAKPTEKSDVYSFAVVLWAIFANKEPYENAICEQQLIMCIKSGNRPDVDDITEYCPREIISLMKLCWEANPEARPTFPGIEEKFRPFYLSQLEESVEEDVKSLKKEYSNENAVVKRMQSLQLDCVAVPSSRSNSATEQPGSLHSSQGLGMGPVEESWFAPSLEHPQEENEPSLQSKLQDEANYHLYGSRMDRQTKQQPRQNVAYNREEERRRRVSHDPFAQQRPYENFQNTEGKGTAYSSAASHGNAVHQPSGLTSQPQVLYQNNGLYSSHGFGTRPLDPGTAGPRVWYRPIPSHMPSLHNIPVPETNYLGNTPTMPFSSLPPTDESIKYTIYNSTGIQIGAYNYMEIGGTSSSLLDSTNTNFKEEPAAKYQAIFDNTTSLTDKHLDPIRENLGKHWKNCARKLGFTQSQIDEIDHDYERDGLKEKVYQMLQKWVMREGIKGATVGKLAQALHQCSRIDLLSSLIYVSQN
Briefly: (§1) Inhibition of recombinant RIPK1 (1 to 327 residues) (unknown origin) expressed in Escherichia coli BL21([…]) using MBP as substrate preincubated for 15 mins followed by substrate and ATP addition and measured after 90 mins by ADP-Glo luminescence […] assay.

Data set [4] has as its target Mitogen-activated protein kinase kinase kinase kinase 4 (Homo sapiens, UniProt O95819). The data set is described as follows: Inhibition of recombinant MAP4K4 (1 to 328 residues) (unknown origin) expressed in Escherichia coli BL21([…]) using MBP as substrate preincubated for 15 mins followed by substrate and ATP addition and measured after 90 mins by ADP-Glo luminescence […] assay.

The target of data set [5] is T2, Receptor-interacting serine/threonine-protein kinase 1 (Homo sapiens) (UniProt Q13546).
T2 sequence (whole entry): T1 sequence (Q13546 whole entry)
The description is as §1. The following applies: time 105.0 min.

The test system of data set [6] is BV-2. The data set is described as follows: Anti-necroptosis activity in LPS/zVAD stimulated mouse BV-2 cells preincubated with LPS for 11 hrs followed by compound addition for 1 hr and exposed to zVAD-fmk for another 24 hrs by Cellcounting-Lite 2.0 luminescent cell viability assay. The following applies: time 25.0 hrs.
In data set [7] the test system is BV-2. Briefly: Anti-necroptosis activity in LPS/zVAD stimulated mouse BV-2 cells at 10 uM preincubated with LPS for 11 hrs followed by compound addition for 1 hr and exposed to zVAD-fmk for another 24 hrs by Cellcounting-Lite 2.0 luminescent cell viability assay. Format: functional, cell-based. To be noted: time 25.0 hrs.
For data set [8], the system named is BV-2. The data set is described as follows: Synergistic anti-necroptosis activity in LPS/zVAD stimulated mouse BV-2 cells preincubated with LPS for 11 hrs followed by compound addition for 1 hr and exposed to zVAD-fmk for another 24 hrs in presence of Nec-1 by Cellcounting-Lite 2.0 luminescent cell viability assay. The format is functional, cell-based. To be noted: time 25.0 hrs.

The test system of data set [9] is BV-2. The data set is described as follows: Synergistic anti-necroptosis activity in LPS/zVAD stimulated mouse BV-2 cells preincubated with LPS for 11 hrs followed by compound addition for 1 hr and exposed to zVAD-fmk for another 24 hrs in presence of crizotinib by Cellcounting-Lite 2.0 luminescent cell viability assay. The format is functional, cell-based. The following applies: time 25.0 hrs.

The test system of data set [10] is BV-2. Briefly: Cytotoxicity against mouse BV-2 cells. The format is toxicity, cell-based.

Each structure is given as a SMILES string. Active and inactive are the calls of the source. The rule behind the calls is not given here. Some results are limits rather than exact numbers.

Sequence of Mitogen-activated protein kinase kinase kinase kinase 4 (O95819 whole entry, the tested form may be a part): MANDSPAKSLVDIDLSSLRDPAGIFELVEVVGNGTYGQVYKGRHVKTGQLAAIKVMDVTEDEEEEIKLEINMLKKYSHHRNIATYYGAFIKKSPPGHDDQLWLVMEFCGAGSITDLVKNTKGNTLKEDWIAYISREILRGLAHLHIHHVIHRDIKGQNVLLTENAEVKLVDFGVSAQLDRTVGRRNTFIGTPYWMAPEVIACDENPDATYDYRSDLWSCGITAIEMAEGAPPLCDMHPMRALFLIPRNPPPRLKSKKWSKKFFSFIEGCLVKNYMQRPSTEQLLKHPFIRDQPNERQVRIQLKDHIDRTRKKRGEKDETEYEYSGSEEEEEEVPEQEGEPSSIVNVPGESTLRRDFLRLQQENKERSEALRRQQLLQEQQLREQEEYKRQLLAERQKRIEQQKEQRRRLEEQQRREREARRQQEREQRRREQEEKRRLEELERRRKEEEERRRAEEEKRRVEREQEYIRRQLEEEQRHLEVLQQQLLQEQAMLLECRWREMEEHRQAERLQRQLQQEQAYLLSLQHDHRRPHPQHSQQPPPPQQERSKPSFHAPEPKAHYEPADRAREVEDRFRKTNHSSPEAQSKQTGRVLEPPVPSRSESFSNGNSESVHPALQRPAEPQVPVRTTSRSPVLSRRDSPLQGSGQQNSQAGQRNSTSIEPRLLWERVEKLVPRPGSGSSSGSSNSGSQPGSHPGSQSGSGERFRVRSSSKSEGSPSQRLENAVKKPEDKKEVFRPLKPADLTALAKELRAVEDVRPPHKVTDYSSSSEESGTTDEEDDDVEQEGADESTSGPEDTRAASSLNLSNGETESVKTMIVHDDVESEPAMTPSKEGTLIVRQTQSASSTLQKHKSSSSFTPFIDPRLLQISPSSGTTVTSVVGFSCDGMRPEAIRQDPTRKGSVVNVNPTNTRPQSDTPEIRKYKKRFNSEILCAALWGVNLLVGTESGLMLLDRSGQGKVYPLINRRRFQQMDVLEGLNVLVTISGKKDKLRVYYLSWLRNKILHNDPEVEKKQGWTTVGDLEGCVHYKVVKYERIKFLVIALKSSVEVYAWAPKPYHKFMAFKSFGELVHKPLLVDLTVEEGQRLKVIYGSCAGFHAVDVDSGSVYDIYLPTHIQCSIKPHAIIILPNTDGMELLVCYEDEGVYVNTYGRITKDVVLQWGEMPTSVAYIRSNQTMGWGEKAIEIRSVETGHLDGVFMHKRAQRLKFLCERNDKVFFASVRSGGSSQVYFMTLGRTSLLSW
Sequence of ALK tyrosine kinase receptor (Q9UM73 whole entry): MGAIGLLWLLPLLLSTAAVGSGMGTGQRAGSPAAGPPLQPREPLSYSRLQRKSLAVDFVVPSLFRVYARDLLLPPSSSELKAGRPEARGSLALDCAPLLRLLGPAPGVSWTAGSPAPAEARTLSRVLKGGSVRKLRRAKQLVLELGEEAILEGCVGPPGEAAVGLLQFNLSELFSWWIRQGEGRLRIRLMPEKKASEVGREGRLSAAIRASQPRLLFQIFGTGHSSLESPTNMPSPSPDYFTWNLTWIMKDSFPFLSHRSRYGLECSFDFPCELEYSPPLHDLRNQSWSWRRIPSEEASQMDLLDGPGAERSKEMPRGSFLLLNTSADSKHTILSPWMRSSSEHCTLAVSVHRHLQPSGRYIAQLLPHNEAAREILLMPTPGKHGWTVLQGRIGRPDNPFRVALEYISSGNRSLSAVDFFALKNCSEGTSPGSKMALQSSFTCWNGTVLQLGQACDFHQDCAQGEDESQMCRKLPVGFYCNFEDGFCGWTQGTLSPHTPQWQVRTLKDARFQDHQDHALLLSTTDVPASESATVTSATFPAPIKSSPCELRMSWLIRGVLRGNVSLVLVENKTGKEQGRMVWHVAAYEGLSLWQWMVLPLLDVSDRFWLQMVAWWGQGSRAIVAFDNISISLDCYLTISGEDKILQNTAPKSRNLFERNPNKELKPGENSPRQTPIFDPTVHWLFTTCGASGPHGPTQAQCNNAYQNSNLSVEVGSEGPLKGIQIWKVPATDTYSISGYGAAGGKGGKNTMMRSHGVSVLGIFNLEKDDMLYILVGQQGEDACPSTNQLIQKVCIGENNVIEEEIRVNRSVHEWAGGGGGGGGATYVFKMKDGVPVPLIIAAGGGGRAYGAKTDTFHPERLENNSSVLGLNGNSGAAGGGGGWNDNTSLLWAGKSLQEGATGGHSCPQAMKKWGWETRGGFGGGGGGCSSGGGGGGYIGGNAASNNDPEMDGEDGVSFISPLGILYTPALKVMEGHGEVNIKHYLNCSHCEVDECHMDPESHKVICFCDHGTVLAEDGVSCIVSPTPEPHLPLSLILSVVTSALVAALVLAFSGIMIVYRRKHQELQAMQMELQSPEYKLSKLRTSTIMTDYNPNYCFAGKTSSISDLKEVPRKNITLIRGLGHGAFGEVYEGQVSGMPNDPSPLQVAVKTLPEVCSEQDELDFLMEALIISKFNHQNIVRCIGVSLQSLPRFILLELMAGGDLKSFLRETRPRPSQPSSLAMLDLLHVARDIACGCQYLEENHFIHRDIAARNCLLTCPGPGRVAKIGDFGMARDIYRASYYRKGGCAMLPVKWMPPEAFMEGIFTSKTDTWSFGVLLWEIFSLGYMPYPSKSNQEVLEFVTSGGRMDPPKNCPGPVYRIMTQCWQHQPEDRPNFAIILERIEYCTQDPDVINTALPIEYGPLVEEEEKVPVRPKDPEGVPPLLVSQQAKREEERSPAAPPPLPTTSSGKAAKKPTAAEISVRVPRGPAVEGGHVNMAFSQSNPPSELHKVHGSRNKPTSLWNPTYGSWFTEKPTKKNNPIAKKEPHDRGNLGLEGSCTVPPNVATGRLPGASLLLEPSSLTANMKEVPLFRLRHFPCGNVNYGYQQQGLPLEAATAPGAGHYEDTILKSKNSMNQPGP

Broadly, the EC50 is the concentration that produces a half-maximal response. What is called IC50 is the point on the concentration scale where inhibition reaches its midpoint. In turn, `Cc1cc(F)cc(Nc2ncc(Nc3ccc(F)cc3F)cc2C(N)=O)c1` displayed an EC50 in data set [1] of 150 nM. In addition, the IC50 in data set [2] was found to be 780 nM; in data set [3], 290 nM; in [4], 1920 nM.
In the case of `Nc1cc(-c2ccc(Br)cc2)nn1Cc1ccccc1`, the Inhibition activity call in data set [5] is “Active”. The outcome in data set [6] was Active.
For `Cc1cc(F)cc(Nc2ncc(Nc3ccc4c(c3)CCCC4)cc2C(N)=O)c1`, in data set [1], the EC50 was found to be 200 nM. Moreover, the IC50 in [3] is 690 nM; in data set [4] it was 2260 nM.
Take `CN(C(=O)c1cccn(Cc2cccc(F)c2)c1=O)c1ccccc1`: the Inhibition activity call in [5] was “Active”. The result in data set [6] was Active.
In the case of `Cc1cc(F)cc(Nc2ncc(Nc3ccccc3)cc2C(N)=O)c1`, in data set [1], the EC50 is 370 nM. Moreover, the IC50 in data set [2] came to 1270 nM; in data set [3], 380 nM; in data set [4], 760 nM.
In [1], `Cc1cc(F)cc(Nc2ncc(Nc3ccc(Oc4ccccc4)cc3)cc2C(N)=O)c1` registered an EC50 of 2660 nM. Further, the IC50 in data set [2] came to 3790 nM; in [3], 870 nM; in [4], 4290 nM.
On to `Cc1cc(F)cc(Nc2ncc(Nc3ccc4c(c3)OCO4)cc2C(N)=O)c1`, for which the EC50 in data set [1] worked out at 160 nM. Moreover, the IC50 is 660 nM in data set [3] and 2230 nM in data set [4].
With `O=C(NCCc1ccccc1)C1CCN(C(=O)c2ccccc2F)CC1`, in data set [5], the Inhibition activity call was “Active”. Also, the result in data set [6] was Active.
Regarding `Nc1ccc(-c2cnc(N)c(-c3ccc(Cl)cc3)c2)cn1`, the Activity entry in data set [7] is given as “Active; Activity Similar To Nec-1”. Moreover, the outcome in data set [8] and in data set [9] was inactive.
In turn, `Cc1cc(F)cc(Nc2ncccc2C(N)=O)c1` had an EC50 in data set [1] of 480 nM. Further, the IC50 in data set [2] was found to be 610 nM; in [3] it was 240 nM; in data set [4], 660 nM.
The corresponding values for `Cc1cc(F)cc(Nc2ncc(Nc3ccc(-c4ccco4)cc3)cc2C(N)=O)c1` are 120 nM, 1450 nM, 360 nM and 650 nM.
Regarding `C[C@@H](Oc1cc(-c2cnn(C3CCNCC3)c2)cnc1N)c1c(Cl)ccc(F)c1Cl` [CRIZOTINIB], the Activity result in data set [10] is recorded as “Non-toxic”.
Regarding `Cc1cc(C)cc(Nc2cnc(Nc3cc(C)cc(F)c3)c(C(N)=O)c2)c1`, the IC50 was found to be 210 nM in data set [2], 430 nM in data set [3] and 930 nM in data set [4].
`Cc1cc(F)cc(Nc2ncc(Nc3ccc(C(C)(C)C)cc3)cc2C(N)=O)c1`: in [1], it took 440 nM to reach a half-maximal effect (EC50). The figures for the IC50 in data set [2] and in data set [3] were 830 nM and 500 nM, respectively.
With `Cc1cc(F)cc(Nc2ncc(Nc3ccccc3C)cc2C(N)=O)c1`, the EC50 in data set [1] is greater than 3000 nM. Besides, the IC50 in data set [4] came out at 970 nM.
Take `CCCc1ccc(Nc2cnc(Nc3cc(C)cc(F)c3)c(C(N)=O)c2)cc1`: in data set [1], the EC50 is greater than 3000 nM. For the same compound, the figures for the IC50 in data set [2], in data set [3] and in data set [4] were 3310 nM, 1480 nM and 12900 nM, respectively.
For `Cc1cc(F)cc(Nc2ncc(Nc3cccc(C#N)c3)cc2C(N)=O)c1`, the EC50 in data set [1] is greater than 3000 nM. For the same compound, the IC50 was 2240 nM in [2], 1210 nM in data set [3] and 530 nM in [4].
As for `O=C1c2cccc3cccc(c23)N1Cc1ccc(F)cc1`, the Inhibition activity call in [5] was “Active”. The outcome in data set [6] was Active.
`Cc1cc(F)cc(Nc2ncc(Nc3ccc(C#N)cc3)cc2C(N)=O)c1` registered an EC50 in data set [1] of 240 nM. For the same compound, the IC50 was 3020 nM in data set [2], 350 nM in data set [3] and 440 nM in data set [4].
For `COc1ccc(Nc2cnc(Nc3cc(C)cc(F)c3)c(C(N)=O)c2)c(F)c1`, it took 1540 nM to reach a half-maximal effect in data set [1] (EC50). The IC50 worked out at 1460 nM in data set [2], 960 nM in [3] and 3160 nM in [4].
Regarding `Cc1c(Cc2ccccc2)sc(NC(=O)c2ccccc2)c1C(N)=O`, the Inhibition activity call in data set [5] is “Active”. The outcome in [6] was Active.
On to `Cc1cc(C)c(C(N)=O)c(Nc2ccc(Cl)cc2)n1`, for which the Inhibition activity call in [5] was “Active”. The outcome in data set [6] was Active.
With `Cc1cc(Nc2ncc(Cl)c(Nc3ccccc3S(=O)(=O)C(C)C)n2)c(OC(C)C)cc1C1CCNCC1` [CERITINIB], the Activity result in data set [10] is on record as “Toxic”. In [6], the outcome was inactive.
Consider `COc1ccc(Nc2cnc(Nc3cc(C)cc(F)c3)c(C(N)=O)c2)c(C)c1`, for which the EC50 in data set [1] is greater than 3000 nM. Besides, the IC50 in data set [4] came to 9260 nM.
For the compound `C=Cc1ccc(Nc2cnc(Nc3cc(C)cc(F)c3)c(C(N)=O)c2)cc1`, the EC50 in data set [1] amounted to 140 nM. Further, the results for the IC50 in data set [3] and in data set [4] were 480 nM and 350 nM, respectively.
`Cc1cc(F)cc(Nc2ncc(Nc3ccccc3Cl)cc2C(N)=O)c1`: the EC50 in data set [1] is greater than 3000 nM. The values for the IC50 in [2], in [3] and in data set [4] were 490 nM, 1300 nM and 760 nM, respectively.
The corresponding values for `Cc1cc(F)cc(Nc2ncc(Nc3ccc(C(F)(F)F)cc3)cc2C(N)=O)c1` are 210 nM, 3780 nM, 420 nM and 1420 nM.
The corresponding values for `COc1ccc(Nc2cnc(Nc3cc(C)cc(F)c3)c(C(N)=O)c2)cc1` are 140 nM, 1550 nM, 300 nM and 1810 nM.
As to `Cc1cc(F)cc(Nc2ncc(Nc3ccc(C)c(C)c3)cc2C(N)=O)c1`, in data set [1], the EC50 was greater than 3000 nM. In addition, the IC50 in data set [2] came out at 1050 nM; in [3] it was 1570 nM; in [4], 1380 nM.

Values taken from ChEMBL document CHEMBL6074641, “Polypharmacological Drug Design Guided by Integrating Phenotypic and Restricted Fragment Docking Strategies” (J Med Chem, 2024).
